Data: patent US20090023738A1, “DIAMINOPYRIMIDINES AS MODULATORS OF THE EP2 RECEPTOR” (priority 2007, published 2009)

How the values were obtained:
[1] = biological target: T1, EP2 subtype of the human PGE2 receptor (Homo sapiens, UniProt P43116); assay: cAMP antagonism assay (EP2 receptor signal, HTRF cAMP detection); type: cell-based; details: in the presence of the agonist PGE2
T1 construct: host or cells: cells in a cell culture plate
Text: 1. Detection of the Antagonism of the Human Prostaglandin E2 (Subtype EP2 Receptor Signal
(§1) The binding of PGE2 to the EP2 subtype of the human PGE2 receptor induces activation of membrane-associated adenylate cyclases and leads to the formation of cAMP. In the presence of the phosphodiesterase inhibitor IBMX, cAMP which has accumulated due to this stimulation and been released by cell lysis is employed in a competitive detection method. In this assay, the cAMP in the lysate competes with cAMP-XL665 for binding of an Eu cryptate-labelled anti-cAMP antibody.
(§2) The two signals are measured in a suitable measuring instrument with a time lag, i.e. after the background fluorescence has declined.
1.2.1 Antagonism Assay (Data for Each Well of a 384-Well plate): […]
After preincubation at room temperature (RT) for 30 minutes, 5 μl of a 4×PGE2 solution (11 nM) are added, and incubation is carried out in the presence of the agonist at RT for a further 60 min (volume: 20 μl) before the reaction is then stopped by adding 5 μl of lysis buffer and incubated at RT for a further 20 min (volume: ˜25 μl). The cell lysate is then transferred into a measuring plate and measured in accordance with the manufacturer's information (cyclic AMP kit Cisbio International # 62AMPPEC).

[2] = biological target: T1, EP2 subtype of the human PGE2 receptor; assay: cellular cAMP agonism assay; type: cell-based; details: without PGE2
Method: as §1, §2
1.2.2 Agonism Assay (Data for Each Well of a 384-Well Plate): […]
After incubation at room temperature (RT; volume: 15 μl) for 60 minutes, the reaction is then stopped by adding 5 μl of lysis buffer and incubated at RT for a further 20 min (volume: 20 μl). The cell lysate is then transferred into a measuring plate and measured in accordance with the manufacturer's information (cyclic AMP kit Cisbio International # 62AMPPEC).

T1 sequence (P43116 whole entry): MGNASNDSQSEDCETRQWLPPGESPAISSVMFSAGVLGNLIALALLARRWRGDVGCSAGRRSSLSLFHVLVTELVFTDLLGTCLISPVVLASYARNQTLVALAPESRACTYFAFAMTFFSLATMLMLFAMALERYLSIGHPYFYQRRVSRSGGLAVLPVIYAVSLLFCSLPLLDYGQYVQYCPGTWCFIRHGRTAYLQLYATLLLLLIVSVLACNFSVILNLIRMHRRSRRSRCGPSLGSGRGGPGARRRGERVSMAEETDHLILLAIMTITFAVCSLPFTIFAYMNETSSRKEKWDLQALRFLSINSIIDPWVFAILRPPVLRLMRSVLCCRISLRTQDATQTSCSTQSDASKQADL

Row | IC50 [1] [nM] | effect in the cellular agonism test [2] | SMILES
1 | 1600 | no inhibition | Cc1[nH]c2c(F)ccc(C)c2c1CCNc1cc(NCc2cccnc2)ncn1 [Example 6, N-[2-(7-Fluoro-2,4-dimethyl-1H-indol-3-yl)ethyl]-N′-pyridin-3-ylmethylpyrimidine-4,6-diamine]
2 | 1400 |  | Cc1[nH]c2c(F)ccc(C)c2c1CCNc1cc(NCc2ccccc2-c2ccccc2)ncn1 [Example 17, N-Biphenyl-2-ylmethyl-N′-[2-(7-fluoro-2,4-dimethyl-1H-indol-3-yl)ethyl]-pyrimidine-4,6-diamine]
